Assay results: ChEMBL document CHEMBL3600330, “Synthesis and biological evaluation of novel piperidine-benzodioxole derivatives designed as potential leishmanicidal drug candidates” (Bioorg Med Chem Lett, 2015)

Assays:
[1] = Selectivity ratio of CC50 for human PBMC to IC50 for promastigote form of Leishmania amazonensis
[2] = (§1) Cytotoxicity against human PBMC assessed as cell viability after 48 hrs by MTT reduction assay; format: cell-based; conditions: PBMC (peripheral blood mononuclear cells)
[3] = tested on: Leishmania amazonensis; test: Leishmanicidal activity against promastigote form of Leishmania amazonensis assessed as inhibition of parasite growth after 72 hrs by Neubauer's chamber method; format: functional, organism-based
[4] = tested on: PBMC; test: as §1; format: cell-based; conditions: pbmc, 48 h
[5] = tested on: Leishmania amazonensis; test: Leishmanicidal activity against promastigote form of Leishmania amazonensis […] assessed as inhibition of parasite growth after 48 hrs by Neubauer's chamber method; format: functional, organism-based

SMILES | Ratio CC50/IC50 [1] | CC50 at 48 h [2] [µM] | IC50 [3] [µM] | CC50 [4] | IC50 [5] [µM]
O=C(OCC1CCN(Cc2ccc3c(c2)OCO3)CC1)c1ccccc1 | 3.9 | 306 | 78.3 |  | 
O=C(OCC1CCN(Cc2ccc3c(c2)OCO3)CC1)c1ccc(Br)cc1 | 5.43 | 208 | 38.3 |  | 
O=C(OCC1CCN(Cc2ccc3c(c2)OCO3)CC1)c1ccc(F)cc1 | 7.33 | 420 | 57.4 |  | 
O=C(OCC1CCN(Cc2ccc3c(c2)OCO3)CC1)c1ccc2c(c1)OCO2 | 12.88 | 362 | 28.1 |  | 
O=C(OCC1CCN(Cc2ccc3c(c2)OCO3)CC1)c1ccc(Cl)cc1 |  |  | > 103 | Non-toxic | 
O=C(/C=C/c1ccc2c(c1)OCO2)OCC1CCN(Cc2ccc3c(c2)OCO3)CC1 | <10.06 | 950 | > 94.5 |  | 
O=C(OCC1CCN(Cc2ccc3c(c2)OCO3)CC1)c1ccc([N+](=O)[O-])cc1 | 20.64 | 356 | 17.2 |  | 
COc1ccc(C(=O)OCC2CCN(Cc3ccc4c(c3)OCO4)CC2)cc1OC | 39.76 | 1720 | 43.2 |  | 
CCCCCCNC(=O)OCC1CCN(Cc2ccc3c(c2)OCO3)CC1 | 5 | 143 | 28.6 |  | 
CCNC(=O)OCC1CCN(Cc2ccc3c(c2)OCO3)CC1 | <19.48 | 2430 | > 125 |  | 
O=C(/C=C/C=C/c1ccc2c(c1)OCO2)N1CCCCC1 [PIPERINE] |  |  |  |  | 14.5
